“Also recorded” adds a separate entry of the source. Read-outs that look alike come from different tables or passages of the source.
How the values were obtained:
[1] = system: Amaranthus retroflexus (AMARE); test: Greenhouse weed control efficacy on AMARE; assay type: in vivo; conditions: for % Control compared to untreated AMARE plants 21 DAA: 100 g a.e./ha, AMARE at BBCH 16-19 at application, visual rating 21 DAA; for % Control compared to untreated plants 21 DAA AMARE: BBCH 16-19, 21 DAA
Description: (§1) The different forms of benazolin were applied to weed plants in the greenhouse or in the field at the growth stage indicated for the different weed species hereinafter. The trials in the greenhouse were sprayed with an application volume of 300 L/ha with an automated track sprayer. The plots in the field were sprayed with an application volume of 140 L/ha with a hand held spray boom. Twenty-one days after application (21 DAA) or twenty-eight days after application (28 DAA) the different weed species were visually rated on a percentage scale in relation to the untreated control (100%=all plants dead; 50%=green plant biomass reduced by 50%, and 0%=no discernible difference=like control plot). The growth stages of the different weed species are indicated according to the BBCH monograph “Growth stages of mono- and dicotyledonous plants”, 2nd edition, 2001, ed. Uwe Meier, Federal Biological Research Centre for Agriculture and Forestry (Biologische Bundesanstalt für Land and Forstwirtschaft).

[2] = system: Chenopodium album (CHEAL); test: Greenhouse weed control efficacy on CHEAL; assay type: in vivo; conditions: BBCH 15-24, 21 DAA
Description: as §1

[3] = system: Alternanthera tenella (ALRTE); test: Field weed control efficacy on ALRTE; assay type: in vivo; conditions: 200 g a.e./ha, ALRTE at BBCH 14-16 at application
Description: as §1

[4] = system: Euphorbia heterophylla (EPHHL); test: Field weed control efficacy on EPHHL; assay type: in vivo; conditions: 200 g a.e./ha, EPHHL at BBCH 16-17 at application
Description: as §1

[5] = system: Portulaca oleracea (POROL); test: Field weed control efficacy on POROL; assay type: in vivo; conditions: 200 g a.e./ha, POROL at BBCH 21-22 at application
Description: as §1

[6] = Formulation compatibility: crystal formation after low temperature storage, mixing with glyphosate (Roundup Weathermax); assay type: physicochemical; conditions: benazolin salt SL10 mixed with Roundup Weathermax, ratio 4:1 (a.e., w/w), 5° C. for 2 days
Procedure: (§2) Here simple mixing experiments were performed with soluble liquid SL 10 formulations of benazolin salts containing […] a.e. of benazolin (see General procedure 51 above) containing no surfactant and commercially available dicamba and glyphosate formulations.
(§3) Formulation compatibility (solubility, miscibility and storability) tests of different benazolin salt SL 10 formulations in mixture with commercial formulations of herbicides such as dicamba or glyphosate were performed.
In a second experiment, Roundup® Weathermax was tank mixed with the respective benazolin salt SL 10 formulation in a 4:1 ratio by weight (w/w) based on the respective a.e. contents (in Table B5b referred to as “Ratio”) and the vial placed at 5° C. for 2 days.

[7] = cited from earlier work
[8] = Formulation compatibility: crystal formation after low temperature storage, mixing with dicamba (Clarity); assay type: physicochemical; conditions: benazolin salt SL10 mixed with Clarity, ratio 2:1 (a.e., w/w), 5° C. for 2 days
Procedure: as §2, §3
In a first experiment, Clarity® (a commercial formulation of dicamba) was tank mixed with the respective benazolin salt SL 10 formulation in a 2:1 ratio by weight (w/w) based on the respective a.e. contents (in Table B5a referred to as “Ratio”) and the vial placed at 5° C. for 2 days.

[9] = benazolin salt 100 g a.e./ha in combination with 100 g a.e./ha dicamba (Clarity)
[10] = benazolin salt 100 g a.e./ha in combination with 200 g a.e./ha dicamba (Clarity)
[11] = benazolin salt 100 g a.e./ha in combination with 300 g a.e./ha dicamba (Clarity)
[12] = free acid, temperature not printed with the values (b59 refers to 25° C.)

Row | SMILES | % Control compared to untreated AMARE plants 21 DAA [1] [%] | % Control compared to untreated plants 21 DAA AMARE [1, 9] [%] | % Control compared to untreated plants 21 DAA AMARE [1, 10] [%] | % Control compared to untreated plants 21 DAA AMARE [1, 11] [%] | % Control compared to untreated plants 21 DAA CHEAL [2, 9] [%] | % Control compared to untreated plants 21 DAA CHEAL [2, 10] [%] | % Control compared to untreated plants 21 DAA CHEAL [2, 11] [%] | % Control compared to untreated ALRTE plants 21 DAA [3] [%] | % Control compared to untreated EPHHL plants 28 DAA [4] [%] | % Control compared to untreated POROL plants 28 DAA [5] [%] | Microscopic evaluation (crystal formation) [6] | other results
1 | O=C(O)Cn1c(=O)sc2cccc(Cl)c21 [Benazolin-DGA] | 40 | 35 | 40 | 55 | 25 | 65 | 50 | 44 | 8 | 50 | Crystal formation | Microscopic evaluation (shape of crystals) [6]: needles; Microscopic evaluation (size of crystals in μm) [6]: (60-100 μm),
2 | O=C(O)Cn1c(=O)sc2cccc(Cl)c21 [Benazolin-BAPMA] | 65 | 35 | 50 | 65 | 50 | 65 | 67 |  |  |  |  | 
3 | O=C(O)Cn1c(=O)sc2cccc(Cl)c21 [Benazolin, 4-Chloro-2,3-dihydro-2-oxo-1,3-benzothiazol-3-ylacetic acid] | 25 |  |  |  |  |  |  | 40 | 5 | 88 |  | vapor pressure ([7]; at 20° C.): 0.0001 mPa
4 | CCOC(=O)Cn1c(=O)sc2cccc(Cl)c21 [Benazolin-ethyl, Ethyl (4-chloro-2-oxo-1,3-benzothiazol-3(2H)-yl)acetate] | 35 |  |  |  |  |  |  | 40 | 8 | 88 |  | 
5 | O=C(O)COc1ccc(Cl)cc1Cl [2,4-D, 2,4-dichlorophenoxy)acetic acid] |  |  |  |  |  |  |  |  |  |  |  | vapor pressure [7, 12]: about 0.019 mPa
6 | O=C(O)Cn1c(=O)sc2cccc(Cl)c21 [Benazolin-choline] | 70 | 50 | 80 | 75 | 70 | 80 | 85 | 48 | 13 | 100 | no crystal formation was observed; also recorded: No crystals | Microscopic evaluation (crystal formation) [8]: no crystal formation was observed; also recorded: No crystals
7 | O=C(O)Cn1c(=O)sc2cccc(Cl)c21 [Benazolin-DEA] |  |  |  |  |  |  |  |  |  |  |  | Microscopic evaluation (crystal formation) [8]: Crystal formation; Microscopic evaluation (shape of crystals) [8]: platelets + needles; Microscopic evaluation (size of crystals in μm) [8]: (20-40 μm),
8 | O=C([O-])Cn1c(=O)sc2cccc(Cl)c21.[K+] [Benazolin-K] |  |  |  |  |  |  |  |  |  |  | Crystal formation | Microscopic evaluation (shape of crystals) [6]: platelets + needles; Microscopic evaluation (size of crystals in μm) [6]: (20-50 μm),
9 | COc1c(Cl)ccc(Cl)c1C(=O)O [Dicamba, 3,6-dichloro-2-methoxybenzoic acid] |  |  |  |  |  |  |  |  |  |  |  | vapor pressure [7, 12]: 4.5 mPa

From US12435050B2, “Benazolin-choline and its use in the agrochemical field” (BAYER AKTIENGESELLSCHAFT, priority 2019, dated 2025)
